Consider six substances from paper PMC4443670, “The C-terminal region of the motor protein MCAK controls its structure and activity through a conformational switch” (eLife, 2015).

“Also recorded” adds a separate entry of the source. Ends that are not written are not given here.

The test deals with MCAK motor domain (His-M, His-NM). Kind of test: Resin-based (glutathione agarose) GST pull-down binding assay. More on the design: species or system human. Conditions: GST-CT constructs on glutathione agarose beads; purified His-M / His-NM; Coomassie-stained gel. The text has this:
Kinesin-1 is regulated through an auto-inhibitory mechanism whereby one C-terminal tail binds at the interface of the two motors, such that it creates a second point of attachment in addition to the coiled coil region. This limits the head movement of one kinesin with respect to the other ([Stock et al., 1999]; [Hackney and Stock, 2000]; [Kaan et al., 2011]). We sought to test whether the C-terminal tail domain of MCAK, which has been proposed to regulate MCAK activity ([Moore and Wordeman, 2004]), was sufficient to interact with the motor domain. To do this, we expressed the N-terminal and motor region (residues 1–583, termed NM) or the motor region of MCAK along with the neck linker region (residues 181–583, termed M) as His-tagged proteins, and the C-terminal MCAK tail (residues 700–725, termed CT domain) as a GST fusion protein ([Moore and Wordeman, 2004]; [Hertzer et al., 2006]) (Figure 1A). […] We cannot however exclude a very tight interaction between two CT domains. […] Together, these experiments reveal that the MCAK CT domain interacts with its catalytic domain in solution.
Figure 4. Sequence requirement for the formation of a motor-CT tail complex. (A) Sequence alignment of the conserved CT domain of MCAK for various species alongside the Drosophila kinesin-13 Klp10A and human Kif2a. The conserved residues are highlighted in red. The three amino acids that are critical for binding to the motor domain are marked with a green star. (B) Sequence alignment of the C terminus of human Kif2a, Kif2b, and MCAK/Kif2c. Amino acid numbering is relative to the Kif2a sequence. The MCAK CT domain binding to the motor domain is boxed in green. The sequences were aligned using the program T-coffee (EBI) and formatted with ESPRIPT ([Gouet et al., 1999]). (C) Coomassie-stained gel showing a resin-based binding assay using glutathione agarose beads for purified His-M, binding to the GST-CT and GST-CT point mutants. (D) Size-exclusion chromatography elution profile of the motor domain alone (red dashes), motor incubated with the CT, CTS715E, CTE711A, E712A domains (cyan, green dashes, and purple, respectively). Bottom, coomassie-stained gel showing the size-exclusion chromatography elution of the motor incubated with the CTS715E and CTE711A, E712A domains (green and purple, respectively). DOI: http://dx.doi.org/10.7554/eLife.06421.008
Protein expression was induced by addition of 0.5 mM IPTG to BL21(DE3) Codon plus cells transformed with respective constructs at OD600 of 0.7–0.8 for 16 hr at 18°C. Cells were lysed by sonication in lysis buffer (50 mM Hepes, pH 7.4, 200 mM NaCl, 1 mM MgCl2, 1 mM PMSF, 1 mg/ml DNaseI, 2 mg/ml lysozyme, 10 mM Imidazole) and clarified at 20,000 rpm for 1 hr at 4°C. His-tagged and GST-tagged proteins were subsequently purified using Ni-NTA–agarose beads and glutathione-sepharose beads, respectively (GE Healthcare Life Sciences, UK)) according to the manufacturer's guidelines. MCAK constructs containing the motor domain were eluted with elution buffer (50 mM Hepes, pH 7.4, 200 mM NaCl, 1 mM MgCl2, 1 mM ATP, and 300 mM imidazole). Cleavage of the GST tag was performed using the GST-3C protease overnight at 4°C. Proteins were further purified using gel filtration chromatography pre-equilibrated in gel filtration buffer (For full-length MCAK: 100 mM HEPES, pH 7.3, 200 mM NaCl, 200 mM KCl, 1 mM DTT, 1 mM MgCl2, 1 mM Na-EGTA, 1 mM ATP; for the motor domain constructs: 50 mM HEPES, pH 7.2, 150 mM NaCl, 1 mM DTT, 1 mM MgCl2, 1 mM Na-EGTA, 1 mM ATP; for CT domain constructs: 50 mM HEPES, pH 7.2, 150 mM NaCl, 1 mM DTT, 1 mM MgCl2, 1 mM Na-EGTA). Analytical gel filtration chromatography was performed using either a Superdex 75 or a Superose 6 10/300 GL column (GE Healthcare, UK). To purify the CT domain alone, we cleaved GST and CT after gel filtration and a concentration step, and performed a glutathione affinity-purification third step to remove the GST and collect the CT domain. […]
With “GST-CT: C-terminal MCAK tail (residues 700–725) as a GST fusion protein (VIKALRLAMQLEEQASRQISSKKRPQ; also: GST fusion partner not in chain)”, the “binding to the motor domain of MCAK” value is “bound to both the NM and M domains of MCAK as a stable complex; also recorded: bound to the motor domain”.

“CTR716A: CT domain point mutant R716A (VIKALRLAMQLEEQASAQISSKKRPQ; not fully specified)”: the “binding to the motor domain of MCAK” value is reported as “bound robustly”.

For the substance “GST-CTS715A: GST fusion of CT domain S715A (VIKALRLAMQLEEQAARQISSKKRPQ; also: GST fusion partner not in chain)”, the “binding to the motor domain of MCAK” value is “bound to the motor domain”.

For “GST-CTS715E: GST fusion of CT domain S715E (VIKALRLAMQLEEQAERQISSKKRPQ; also: GST fusion partner not in chain)”, the “binding to the motor domain of MCAK” value is “did not interact with the motor domain”.

Regarding “CTE711A, E712A: CT domain point mutant E711A, E712A (VIKALRLAMQLAAQASRQISSKKRPQ; not fully specified)”, the “binding to the motor domain of MCAK” value is listed as “no longer bound to the motor domain of MCAK”.

In the case of “CTI718A: CT domain point mutant I718A (VIKALRLAMQLEEQASRQASSKKRPQ; not fully specified)”, the “binding to the motor domain of MCAK” value is “bound robustly”.
